Measurements: patent US6201006A, “Aromatic amidine derivatives useful as selective thrombin inhibitors” (C & C Research Laboratories, priority 1996, dated 2001)
Blank lines part the entries; values can stand above or below the compound they belong to.

Experiments:
[1] = molecular target: T1, human thrombin (Homo sapiens, UniProt P00734); assay: Inhibitory activity for thrombin (chromogenic substrate hydrolysis, 405 nm); assay type: biochemical; details: for Selectivity (trypsin/thrombin): IC50 for trypsin divided by IC50 for thrombin; for IC50: human thrombin, 20 min, pH 8.0, N-benzoyl-Phe-Val-Arg-p-nitroanilide
T1 construct: purchased Sigma T-6759
Method: 20 μl of each compound of the present invention was dissolved in 50% methanol in various concentrations and then added to each well of a microplate, to each of which 160 μl of the reaction medium containing 125 mM NaCl, 50 mM Tris-HCl (pH 8.0) and 2 mM synthetic substrate (N-benzoyl-Phe-Val-Arg-p-nitroanilide, Sigma B-7632) were added. 20 μl of human thrombin solution (5 units/ml, Sigma T-6759, manufactured by Sigma Co.) containing 0.1% bovine serum albumin was added to each well to initiate the enzymatic reaction. After 20 minutes, the hydrolysis of substrate was determined by measuring the absorbance at 405 nm. […] The selectivity index was calculated by dividing the IC50 value for trypsin by the IC50 value for thrombin. The thrombin inhibitory activity and the trypsin inhibitory activity for the compound of the present invention are shown in the following Table 2.

[2] = system: trypsin; assay: Inhibitory activity for trypsin; assay type: biochemical

Compound: CCn1c(CC[C@@H]2CCCN2C(=O)C(c2ccccc2)C2CCCC2)cc2ccc(C(=N)N)cc21 (stereo partly drawn) [Compound 30, 1-ethyl-2-[2-[(S)-1-(2-cyclopentyl-2-phenylacetyl)pyrrolidin-2-yl]ethyl]indole-6-carboxamidine]
Selectivity (trypsin/thrombin) [1]: 46.6
IC50 [1]: 9.01 nM
IC50 [2]: 420 nM

Compound: CCn1c(CC[C@@H]2CCCN2C(=O)CN(C2CC2)S(C)(=O)=O)cc2ccc(C(=N)N)cc21 [Compound 58, 1-ethyl-2-[2-[(S)-1-[2-[cyclopropyl(methylsulfonyl)amino]acetyl]pyrrolidin-2-yl]ethyl]indole-6-carboxamidine]
Selectivity (trypsin/thrombin) [1]: 17.4
IC50 [1]: 3 nM
IC50 [2]: 52.2 nM

Compound: CCn1c(CC[C@@H]2CCCN2C(=O)[C@H]2CCCN2C(CCO)C(N)=O)cc2ccc(C(=N)N)cc21 (stereo partly drawn) [Compound 117, 1-ethyl-2-[2-[(S)-1-[[(R)-1-(1-carbamoyl-3-hydroxypropyl)pyrrolidin-2-yl]carbonyl]pyrrolidin-2-yl]-ethyl]indole-6-carboxamidine]
Selectivity (trypsin/thrombin) [1]: 48.6
IC50 [1]: 16.7 nM
IC50 [2]: 811 nM

Compound: CCn1c(CC[C@@H]2CCCN2C(=O)[C@H]2CCCN2C(=O)[C@H](C)N)cc2ccc(C(=N)N)cc21 [Compound 143, 1-ethyl-2-[2-[(S)-1-[[(R)-1-((S)-2-aminopropanoyl)pyrrolidin-2-yl]carbonyl]pyrrolidin-2-yl]ethyl]indole-6-carboxamidine]
Selectivity (trypsin/thrombin) [1]: 75.2
IC50 [1]: 5.46 nM
IC50 [2]: 410 nM

Compound: C=CC(=O)N1CCC[C@@H]1C(=O)N1CCC[C@H]1CCc1cc2ccc(C(=N)N)cc2n1CC [Compound 182, 1-ethyl-2-[2-[(S)-1-[((R)-1-prop-2-enoyl-pyrrolidin-2-yl)carbonyl]pyrrolidin-2-yl]ethyl]indole-6-carboxamidine]
Selectivity (trypsin/thrombin) [1]: 30.0
IC50 [1]: 10.1 nM
IC50 [2]: 304 nM

Compound: CCn1c(CCC2CCCN2C(=O)C2CCCN2C(=O)CC(NS(C)(=O)=O)C(N)=O)cc2ccc(C(=N)N)cc21 [Compound 162, 1-ethyl-2-[2-[(S)-1-[[1-[(R)-1-[3-carbamoyl-(S)-3-[(methanesulfonyl)amino]propanoyl]pyrrolidin-2-yl]carbonyl]pyrrolidin-2-yl]ethyl]indole-6-carboxamidine]
Selectivity (trypsin/thrombin) [1]: 45.0
IC50 [1]: 7.3 nM
IC50 [2]: 329 nM

Compound: CCn1c(CC[C@@H]2CCCN2C(=O)[C@H]2CCCN2C2CCOC2=O)cc2ccc(C(=N)N)cc21 (stereo partly drawn) [Compound 125, 1-ethyl-2-[2-[(S)-1-[[(R)-1-(2-oxo-3-oxolanyl)pyrrolidin-2-yl]carbonyl]pyrrolidin-2-yl]ethyl]indole-6-carboxamidine]
Selectivity (trypsin/thrombin) [1]: 34.7
IC50 [1]: 22.3 nM
IC50 [2]: 775 nM

Compound: CCOC(=O)CN[C@@H](C(=O)N1CCC[C@H]1CCc1cc2ccc(C(=N)N)cc2n1CC)c1ccccc1 [Compound 38, ethyl 2-[[(R)-2-[2-[(S)-2-[2-(6-amidino-1ethylindol-2-yl)ethyl]pyrrolidinyl]-2-oxo1-phenyl]ethyl]amino]acetate]
Selectivity (trypsin/thrombin) [1]: 24.2
IC50 [1]: 7.59 nM
IC50 [2]: 184 nM

Compound: CCn1c(CC[C@@H]2CCCN2C(=O)[C@H]2CCCN2C(=O)CC(C)O)cc2ccc(C(=N)N)cc21 (stereo partly drawn) [Compound 180, 1-ethyl-2-[2-[(S)-1-[[(R)-1-(3-hydroxybutanoyl)pyrrolidin-2-yl]carbonyl]pyrrolidin-2-yl]-ethyl]indole-6-carboxamidine]
Selectivity (trypsin/thrombin) [1]: 31.8
IC50 [1]: 11 nM
IC50 [2]: 351 nM

Compound: CCn1c(CC[C@@H]2CCCN2C(=O)[C@H]2CCCN2C(=O)CCNS(C)(=O)=O)cc2ccc(C(=N)N)cc21 [Compound 158, 1-ethyl-2-[2-[(S)-1-[[(R)-1-[3-[(methanesulfonyl)amino]propanoyl]pyrrolidin-2-yl]carbonyl]pyrrolidin-2-yl]ethyl]indole-6-carboxamidine]
IC50 [1]: 5.5 nM

Compound: CCn1c(CC[C@@H]2CCCN2C(=O)[C@H](NS(C)(=O)=O)c2ccccc2)cc2ccc(C(=N)N)cc21 [Compound 37, 1ethyl-2-[2-[(S)-1-((R)-2-methylsulfonylamino-2-phenylacetyl)pyrrolidin-2-yl]ethyl]indole-6-carboxamidine]
IC50 [1]: 5.4 nM

Compound: CCn1c(CC[C@@H]2CCCN2C(=O)[C@H]2CCC(=O)N2CC(N)=O)cc2ccc(C(=N)N)cc21 [Compound 187, 1-ethyl-2-[2-[(S)-1-[[(R)-1-(carbamoylmethyl)-5-oxo-pyrrolidin-2-yl]carbonyl]pyrrolidin-2-yl]ethyl]indole-6-carboxamidine]
IC50 [1]: 25.6 nM

Compound: CCCC(CCC)C(=O)N1CCC[C@@H]1C(=O)N1CCC[C@H]1CCc1cc2ccc(C(=N)N)cc2n1CC [Compound 173, 1-ethyl-2-[2-[(S)-1-[[(R)-1-(2-propylpentanoyl)pyrrolidin-2-yl]carbonyl]pyrrolidin-2-yl]ethyl]indole-6-carboxamidine]
IC50 [1]: 34.6 nM

Compound: CCn1c(CC[C@@H]2CCCN2C(=O)[C@H]2CCCN2C(=O)CC(N)=O)cc2ccc(C(=N)N)cc21 [Compound 175, 1-ethyl-2-[2-[(S)-1-[[(R)-1-(2-carbamoylacetyl)pyrrolidin-2-yl]carbonyl]pyrrolidin-2-yl]ethyl]indole-6-carboxamidine]
IC50 [1]: 9.92 nM

Compound: CCn1c(CC[C@@H]2CCCN2C(=O)[C@H]2CCCN2CCCCCC(=O)O)cc2ccc(C(=N)N)cc21 [Compound 131, 6-[(R)-2-[[(S)-2-[2-(6-amidino-1-ethylindol-2-yl)-ethyl]pyrrolidinyl]carbonyl]pyrrolidinyl]hexanoic acid]
Selectivity (trypsin/thrombin) [1]: 14.7
IC50 [1]: 9.29 nM

Compound: CCn1c(CC[C@@H]2CCCN2C(=O)[C@H]2CCCN2C(=O)C2CCNCC2)cc2ccc(C(=N)N)cc21 [Compound 169, 1-ethyl-2-[2-[(S)-1-[[(R)-1-[(4-piperidinyl)carbonyl]pyrrolidin-2-yl]carbonyl]pyrrolidin-2-yl]ethyl]indole-6-carboxamidine]
IC50 [1]: 30.2 nM

Further lines, results first:

Selectivity (trypsin/thrombin) [1]: 18.6
IC50 [1]: 33.1 nM
IC50 [2]: 617 nM
Compound: CCn1c(CC[C@@H]2CCCN2C(=O)[C@H]2CCCN2C(=O)CCCN)cc2ccc(C(=N)N)cc21 [Compound 166, 1-ethyl-2-[2-[(S)-1-[[(R)-1-(4-aminobutanoyl)pyrrolidin-2-yl]carbonyl]pyrrolidin-2-yl]ethyl]indole-6-carboxamidine]

Selectivity (trypsin/thrombin) [1]: 28.8
IC50 [1]: 17.4 nM
IC50 [2]: 500 nM
Compound: CCn1c(CC[C@@H]2CCCN2C(=O)[C@H]2CCCN2CC(N)=O)cc2ccc(C(=N)N)cc21 [Compound 114, 1-ethyl-2-[2-[(S)-1-[[(R)-1-(carbamo-ylmethyl)pyrrolidin-2-yl]carbonyl]pyrrolidin-2-yl]ethyl]indole-6-carboxamidine]

IC50 [1]: 36.5 nM
Compound: CCOC(=O)CCCCCN1CCC[C@@H]1C(=O)N1CCC[C@H]1CCc1cc2ccc(C(=N)N)cc2n1CC [Compound 130, ethyl 6-[(R)-2-[[(S)-2-[2-(6-amidino-1-ethylindol-2-yl)-ethyl]pyrrolidinyl]carbonyl]pyrrolidinyl]hexanoate]

IC50 [1]: 11.4 nM
Compound: CCOC(=O)Cn1c(CC[C@@H]2CCCN2C(=O)[C@H]2CCCN2C(C)=O)cc2ccc(C(=N)N)cc21 [Compound 222, ethyl 2-[2-[2-[(S)-1-[((R)-1-acetylpyrrolidin-2-yl)carbonyl]pyrrolidin-2-yl]ethyl]-6-amidinoindolyl]acetate]

Selectivity (trypsin/thrombin) [1]: 38.6
IC50 [1]: 37.7 nM
Compound: CCOC(=O)C(CC)N1CCC[C@@H]1C(=O)N1CCC[C@H]1CCc1cc2ccc(C(=N)N)cc2n1CC (stereo partly drawn) [Compound 110, ethyl 2-[(R)-2-[[(S)-2-[2-(6-amidino-1-ethylindol-2-yl)ethyl]pyrrolidinyl]carbonyl]pyrrolidinyl]butanoate]

IC50 [1]: 33.1 nM
Compound: CCn1c(CC[C@@H]2CCCN2C(=O)[C@H]2CCCN2C(=O)CNC)cc2ccc(C(=N)N)cc21 [Compound 142, 1-ethyl-2-[2-[(S)-1-[[(R)-1-[2-(methylamino)acetyl]pyrrolidin-2-yl]carbonyl]pyrrolidin-2-yl]ethyl]indole-6-carboxamidine]

IC50 [1]: 26.9 nM
Compound: CCn1c(CC[C@@H]2CCCN2C(=O)[C@H]2CCCN2C(=O)CC(C)N)cc2ccc(C(=N)N)cc21 (stereo partly drawn) [Compound 157, 1-ethyl-2-[2-[(S)-1-[[(R)-1-(3-amino-butanoyl)pyrrolidin-2-yl]carbonyl]pyrrolidin-2-yl]ethyl]indole-6-carboxamidine]

IC50 [1]: 26.2 nM
Compound: CCOC(=O)CCCCN1CCC[C@@H]1C(=O)N1CCC[C@H]1CCc1cc2ccc(C(=N)N)cc2n1CC [Compound 128, ethyl 5-[(R)-2-[[(S)-2-[2-(6-amidino-1-ethylindol-2-yl)ethyl]pyrrolidinyl]carbonyl]pyrrolidinyl]pentanoate]

Selectivity (trypsin/thrombin) [1]: 87.0
IC50 [1]: 51.6 nM
Compound: CCOC(=O)CN1CCC[C@@H]1C(=O)N1CCC[C@H]1CCc1cc2ccc(C(=N)N)cc2n1C [Compound 84, ethyl 2-[(R)-2-[[(S)-2-[2-(6-amidino-1-methylindol-2-yl)ethyl]pyrrolidinyl]carbonyl]pyrrolidinyl]acetate]

IC50 [1]: 31.9 nM
Compound: CCOC(=O)C(C)N1CCC[C@@H]1C(=O)N1CCC[C@H]1CCc1cc2ccc(C(=N)N)cc2n1CC (stereo partly drawn) [Compound 109, ethyl-2-[(R)-2-[[(S)-2-[2-(6-amidino-1-ethylindol-2-yl)ethyl]pyrrolidinyl]carbonyl]pyrrolidinyl]propionate]

Selectivity (trypsin/thrombin) [1]: 10.6
IC50 [1]: 13.1 nM
Compound: CCn1c(CC[C@@H]2CCCN2C(=O)[C@H]2CCCN2CCCCC(=O)O)cc2ccc(C(=N)N)cc21 [Compound 129, 5-[(R)-2-[[(S)-2-[2-(6-amidino-1-ethylindol-2-yl)-ethyl]pyrrolidinyl]carbonyl]pyrrolidinyl]pentanoic acid]
